Source: patent US20240060989A1, “METHODS FOR MEASURING CRALBP ACTIVITY” (NOVARTIS AG, priority 2019, published 2024)

Biological target: T1, human CRALBP protein (Homo sapiens, UniProt P12271)
T1 construct: purchased GeneTex GTX109228-pro
Assay: CRALBP binding assay, Biacore surface plasmon resonance (proteinA/G capture)
Conditions: for Ka: 1:1 binding model, Biacore T200
Description: Binding of 11-cis-retinol to human CRALBP protein was assessed for affinity determinations using Biacore. Kinetic rate constants was performed via surface plasmon resonance (SPR) using the Biacore T200 instrument (Cytiva, formerly GE Healthcare Lifesciences) as described below. The proteinA/G capture method was utilized in order to determine kinetics for 11-cis-retinol.
Recombinant proteinA/G (PIERCE, Cat #21186) was immobilized on the chip surface by using amino-coupling procedure according to the supplier's instruction (Cytiva, BR-1000-50). This immobilized proteinA/G captured commercial anti-CRALBP mouse IgG (Sigma, WH0006017M1, lot #11319-1H7), which then captured human CARLBP protein (GeneTex, GTX109228-pro, lot #42226) on chip surface. The 11-cis-retinol (Biosynth Carbosynth, FR163659) flowed over as analyte.
The 11-cis-retinol concentration started at […] and was serially diluted at one part to one part for five levels of concentration. Regeneration was performed at the end of each cycle using Glycine-HCl pH2.0 (Cytiva, BR-1003-55). The sample dilution step and Biacore experiment were performed either under ambient light or dark condition in which the Biacore sample compartment door was covered by aluminum foil.
Double reference subtraction was completed to generate final data. Kinetic rate constants was obtained by applying 1:1 binding model with Biacore T200 evaluation 3.0 software, wherein the Rmax values were fit locally. Binding was assess under dark and ambient light conditions.

T1 sequence (P12271 whole entry): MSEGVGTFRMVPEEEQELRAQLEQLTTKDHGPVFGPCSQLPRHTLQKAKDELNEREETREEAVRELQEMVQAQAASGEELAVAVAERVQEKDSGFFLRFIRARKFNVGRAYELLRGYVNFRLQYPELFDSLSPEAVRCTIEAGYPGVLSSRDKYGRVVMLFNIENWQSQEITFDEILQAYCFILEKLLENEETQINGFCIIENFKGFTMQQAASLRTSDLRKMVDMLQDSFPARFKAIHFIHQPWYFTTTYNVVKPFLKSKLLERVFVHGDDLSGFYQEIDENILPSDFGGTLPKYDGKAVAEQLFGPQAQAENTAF

In the case of `CC1=C(/C=C/C(C)=C/C=C\C(C)=C\CO)C(C)(C)CCC1` [11-cis-retinol], the “binding to human CRALBP” value (ambient light (FIG. 2A)) is reported as “able to bind”, the Ka (ambient light) is reported as 12.69 M⁻¹ s⁻¹ and the “binding to human CRALBP” value (dark (FIG. 2B)) is reported as “able to bind”. For the same compound, the Ka (dark) was 21.03 M⁻¹ s⁻¹.
